Test results taken from paper PMC10153361, “Mechanism of imidazole inhibition of a GH1 β‐glucosidase” (FEBS Open Bio, 2023).

Assays:
[1] = target: T1, Sfβgly (GH1 β-glucosidase from Spodoptera frugiperda) (Spodoptera frugiperda, UniProt O61594); assay: initial-rate kinetics, Lineweaver-Burk plots, p-nitrophenolate release; format: biochemical; details: competitive; also a substrate; substrate p-nitrophenyl β-glucoside; 100 mM phosphate pH 6.0, 30 °C
T1 construct: recombinant, E. coli BL21(DE3), vector pET46, Ni-NTA purified; secreted digestive midgut enzyme; catalytic residues E187 and E399

[2] = target: T1, Sfβgly (GH1 β-glucosidase from Spodoptera frugiperda); assay: initial-rate kinetics, Lineweaver-Burk and secondary plots, p-nitrophenolate release; format: biochemical
Text: initial-rate kinetics, Lineweaver-Burk and secondary plots, p-nitrophenolate release on Sfβgly (GH1 β-glucosidase from Spodoptera frugiperda)

T1 sequence (O61594 21-509): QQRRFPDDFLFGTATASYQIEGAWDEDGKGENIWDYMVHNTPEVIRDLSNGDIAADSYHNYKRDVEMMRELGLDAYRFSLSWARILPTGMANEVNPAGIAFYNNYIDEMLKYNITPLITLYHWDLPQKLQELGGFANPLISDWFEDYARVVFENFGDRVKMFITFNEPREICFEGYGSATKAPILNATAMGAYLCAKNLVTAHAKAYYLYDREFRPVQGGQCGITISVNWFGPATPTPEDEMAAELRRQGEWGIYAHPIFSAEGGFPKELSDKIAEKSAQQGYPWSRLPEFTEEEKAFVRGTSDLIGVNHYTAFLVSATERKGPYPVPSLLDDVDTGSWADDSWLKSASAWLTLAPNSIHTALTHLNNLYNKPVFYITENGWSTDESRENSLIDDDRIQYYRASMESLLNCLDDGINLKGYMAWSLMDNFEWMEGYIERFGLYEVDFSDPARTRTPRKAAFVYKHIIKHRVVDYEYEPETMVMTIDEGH

## OC[C@H]1O[C@@H](O[C@H]2[C@H](O)[C@@H](O)C(O)O[C@@H]2CO)[C@H](O)[C@@H](O)[C@@H]1O (some centres unmarked) [C2, cellobiose]
[1]
  Ki: 10 mM

## c1c[nH]cn1 [imidazole]
[2]
  Ki: 15.3 ± 0.3 mM
